Test results published in paper PMC10460844, “Real‐Time Monitoring of Multitarget Antimicrobial Mechanisms of Peptoids Using Label‐Free Imaging with Optical Diffraction Tomography” (Advanced Science, 2023).
Square brackets hold non-standard residues; d marks the D form. Peptide text beside a SMILES is read from it. Gly(N(CH2)2(3-indolyl)) = O=C(O)CNCCc1c[nH]c2ccccc12; Nspe = C[C@H](NCC(=O)O)c1ccccc1; Nlys = NCCCCNCC(=O)O

Assays:
[1] = Analytical reversed-phase HPLC elution (hydrophobicity); format: physicochemical; details: Table S1; analytical RP-HPLC, SunFire C18, water/ACN + 0.1% TFA, 5 to 100% B linear over 30 min, 1 mL/min, UV 220 nm; approximate comparison of hydrophobicity
Procedure: 7. HPLC chromatogram, retention time (tR), and LC-MS data
HPLC analysis of peptoids was conducted using a Waters HPLC system equipped with a Waters 2489 UV/Visible Detector, 1525 Binary HPLC Pump, 2707 Autosampler, 5CH column oven, and a C18 column (SunFire C18, 4.6 × 250 mm, 5 μm; Waters Corp., Milford, MA, USA). The mobile phases were deionized water (A, with + 0.1% TFA) and acetonitrile (ACN; B, with + 0.1% TFA). Before sample injection, the column was conditioned with 5% B for 10 min. Then, the mobile phase was maintained at 5% B for 2 min, followed by increasing B to 100% using a linear gradient over 30 min. At this point, 100% B was maintained for 5 additional min. The flow rate of the mobile phase was 1 mL/min. The sample was detected by measuring absorbance at 220 nm. […]

rat erythrocytes = assay: Hemolysis assay; format: cell-based; details: for HC10 / HC50: pH 7.4
Procedure: The hemolysis assay was performed using rat erythrocytes in phosphate‐buffered saline (PBS), as reported by Mendes et al.^[ [45] ^] Animal studies were approved by the Laboratory Animal Resource Center of Gwangju Institute of Science and Technology. Blood was collected from a 13‐week‐old male Sprague‐Dawley rat in tubes containing 158 USP units of sodium heparin to prevent coagulation and centrifuged at 1000 rpm for 10 min at 4 °C. Plasma was removed carefully and erythrocyte pellets were washed three times with PBS (35 mM phosphate, pH 7.4, 150 mM NaCl). Next, 150 µL of a 10% erythrocyte suspension was mixed with 50 µL of serially diluted peptoids (0–100 µM) in a 96‐well black polypropylene plates (Greiner, Kremsmünster, Austria). Untreated erythrocytes and cells lysed by the addition of 1% Triton X‐100 were used as negative and positive controls, respectively, with the 1% Triton X‐100‐treated wells being accepted to represent 100% hemolysis. The reaction mixture was incubated at 37 °C for 60 min, and the plates were centrifuged at 1000 rpm for 15 min. Aliquots (150 µL) of the supernatant were transferred to fresh 96‐well plates, and the absorbance of each well was measured at 540 nm using a microplate reader. Hemolysis induced by peptoids was calculated as the percentage value of Triton X‐100 lysed cells. The percentage of hemolysis by the extracts was calculated according to the following formula: % hemolysis = [(Abs 540 nm in the peptoid solution – Abs 540 nm in PBS) / (Abs 540 nm in 1% Triton X‐100 – Abs 540 nm in PBS)] × 100. HC10 and HC50 were defined as the peptoid concentrations that caused 10% and 50% hemolysis in rat erythrocytes, respectively. H max indicates the percentage of hemolysis observed at the maximum peptoid concentration, 100 µM throughout this study.

SMILES	HPLC elution [1] [% MeCN]	Hmax (100 µM) (rat erythrocytes) [%]	HC10 (rat erythrocytes) [µM]	HC50 (rat erythrocytes) [µM]
C[C@@H](c1ccccc1)N(CC(=O)N(CCCCN)CC(=O)N(CC(=O)N(CC(=O)N(CCCCN)CC(=O)N(CC(=O)N(CC(=O)N(CCCCN)CC(=O)N(CC(=O)N(CC(=O)N(CCc1c[nH]c2ccccc12)CC(N)=O)[C@@H](C)c1ccccc1)[C@@H](C)c1ccccc1)[C@@H](C)c1ccccc1)[C@@H](C)c1ccccc1)[C@@H](C)c1ccccc1)[C@@H](C)c1ccccc1)C(=O)CN(C(=O)CNCCCCN)[C@@H](C)c1ccccc1 [peptoid 4] (H-[Nlys][Nspe][Nspe][Nlys][Nspe][Nspe][Nlys][Nspe][Nspe][Nlys][Nspe][Nspe][Gly(N(CH2)2(3-indolyl))]-NH2)	57.0	103.2±0.9	< 6.3	6.7
C[C@@H](c1ccccc1)N(CC(N)=O)C(=O)CN(C(=O)CN(CCCCN)C(=O)CN(C(=O)CN(C(=O)CN(CCCCN)C(=O)CN(C(=O)CN(C(=O)CN(CCCCN)C(=O)CN(C(=O)CN(C(=O)CN(CCCCN)C(=O)CN(CCc1c[nH]c2ccccc12)C(=O)CNCCc1c[nH]c2ccccc12)[C@@H](C)c1ccccc1)[C@@H](C)c1ccccc1)[C@@H](C)c1ccccc1)[C@@H](C)c1ccccc1)[C@@H](C)c1ccccc1)[C@@H](C)c1ccccc1)[C@@H](C)c1ccccc1 [peptoid 6]	57.2	101.6±5.8	9.6	22.0
C[C@@H](c1ccccc1)N(CC(N)=O)C(=O)CN(C(=O)CN(CCCCN)C(=O)CN(CCc1c[nH]c2ccccc12)C(=O)CN(CCc1c[nH]c2ccccc12)C(=O)CN(CCCCN)C(=O)CN(C(=O)CN(C(=O)CN(CCCCN)C(=O)CN(C(=O)CN(C(=O)CNCCCCN)[C@@H](C)c1ccccc1)[C@@H](C)c1ccccc1)[C@@H](C)c1ccccc1)[C@@H](C)c1ccccc1)[C@@H](C)c1ccccc1 [peptoid 12]	55.9	87.4±2.4	29.1	65.2
C[C@@H](c1ccccc1)N(CC(=O)N(CCc1c[nH]c2ccccc12)CC(=O)N(CCCCN)CC(=O)N(CC(=O)N(CC(=O)N(CCCCN)CC(=O)N(CC(=O)N(CC(=O)N(CCCCN)CC(=O)N(CC(=O)N(CCc1c[nH]c2ccccc12)CC(N)=O)[C@@H](C)c1ccccc1)[C@@H](C)c1ccccc1)[C@@H](C)c1ccccc1)[C@@H](C)c1ccccc1)[C@@H](C)c1ccccc1)C(=O)CNCCCCN [peptoid 16] (H-[Nlys][Nspe][Gly(N(CH2)2(3-indolyl))][Nlys][Nspe][Nspe][Nlys][Nspe][Nspe][Nlys][Nspe][Gly(N(CH2)2(3-indolyl))]-NH2)	54.7	100.3±1.7	13.8	25.0
C[C@@H](c1ccccc1)N(CC(=O)N(CCCCN)CC(=O)N(CC(=O)N(CC(=O)N(CCCCN)CC(=O)N(CC(=O)N(CC(=O)N(CCCCN)CC(=O)N(CC(=O)N(CCc1c[nH]c2ccccc12)CC(N)=O)[C@@H](C)c1ccccc1)[C@@H](C)c1ccccc1)[C@@H](C)c1ccccc1)[C@@H](C)c1ccccc1)[C@@H](C)c1ccccc1)C(=O)CN(CCc1c[nH]c2ccccc12)C(=O)CNCCCCN [peptoid 17] (H-[Nlys][Gly(N(CH2)2(3-indolyl))][Nspe][Nlys][Nspe][Nspe][Nlys][Nspe][Nspe][Nlys][Nspe][Gly(N(CH2)2(3-indolyl))]-NH2)	56.0	87.3±6.7	18.0	39.7

Continued, in another order:

HPLC elution [1] [% MeCN]	SMILES	Hmax (100 µM) (rat erythrocytes) [%]	HC10 (rat erythrocytes) [µM]	HC50 (rat erythrocytes) [µM]
58.6	C[C@@H](c1ccccc1)N(CC(=O)N(CCCCN)CC(=O)N(CC(=O)N(CC(=O)N(CCCCN)CC(=O)N(CC(=O)N(CC(=O)N(CCCCN)CC(=O)N(CC(=O)N(CC(=O)N(CCc1c[nH]c2ccccc12)CC(N)=O)[C@@H](C)c1ccccc1)[C@@H](C)c1ccccc1)[C@@H](C)c1ccccc1)[C@@H](C)c1ccccc1)[C@@H](C)c1ccccc1)[C@@H](C)c1ccccc1)C(=O)CN(C(=O)CN(CCCCN)C(=O)CNCCc1c[nH]c2ccccc12)[C@@H](C)c1ccccc1 [peptoid 5] (H-[Gly(N(CH2)2(3-indolyl))][Nlys][Nspe][Nspe][Nlys][Nspe][Nspe][Nlys][Nspe][Nspe][Nlys][Nspe][Nspe][Gly(N(CH2)2(3-indolyl))]-NH2)	108.1±2.7	< 6.3	15.3
54.1	C[C@@H](c1ccccc1)N(CC(=O)N(CCc1c[nH]c2ccccc12)CC(N)=O)C(=O)CN(CCCCN)C(=O)CN(C(=O)CN(C(=O)CN(CCCCN)C(=O)CN(C(=O)CN(C(=O)CN(CCCCN)C(=O)CN(C(=O)CN(C(=O)CNCCCCN)[C@@H](C)c1ccccc1)[C@@H](C)c1ccccc1)[C@@H](C)c1ccccc1)[C@@H](C)c1ccccc1)[C@@H](C)c1ccccc1)[C@@H](C)c1ccccc1 [peptoid 7] (H-[Nlys][Nspe][Nspe][Nlys][Nspe][Nspe][Nlys][Nspe][Nspe][Nlys][Nspe][Gly(N(CH2)2(3-indolyl))]-NH2)	94.1±4.3	7.8	23.8
54.5	C[C@@H](c1ccccc1)N(CC(N)=O)C(=O)CN(C(=O)CN(CCCCN)C(=O)CN(CCc1c[nH]c2ccccc12)C(=O)CN(C(=O)CN(CCCCN)C(=O)CN(C(=O)CN(C(=O)CN(CCCCN)C(=O)CN(C(=O)CN(C(=O)CNCCCCN)[C@@H](C)c1ccccc1)[C@@H](C)c1ccccc1)[C@@H](C)c1ccccc1)[C@@H](C)c1ccccc1)[C@@H](C)c1ccccc1)[C@@H](C)c1ccccc1 [peptoid 8]	105.1±2.2	12.8	28.4
56.0	C[C@@H](c1ccccc1)N(CC(N)=O)C(=O)CN(C(=O)CN(CCCCN)C(=O)CN(C(=O)CN(C(=O)CN(CCCCN)C(=O)CN(CCc1c[nH]c2ccccc12)C(=O)CN(CCc1c[nH]c2ccccc12)C(=O)CN(CCCCN)C(=O)CN(C(=O)CN(C(=O)CNCCCCN)[C@@H](C)c1ccccc1)[C@@H](C)c1ccccc1)[C@@H](C)c1ccccc1)[C@@H](C)c1ccccc1)[C@@H](C)c1ccccc1 [peptoid 13]	96.8±1.6	20.2	41.3
53.8	C[C@@H](c1ccccc1)N(CC(=O)N(CCCCN)CC(=O)N(CC(=O)N(CC(=O)N(CCCCN)CC(=O)N(CCc1c[nH]c2ccccc12)CC(=O)N(CCc1c[nH]c2ccccc12)CC(N)=O)[C@@H](C)c1ccccc1)[C@@H](C)c1ccccc1)C(=O)CN(C(=O)CN(CCCCN)C(=O)CN(CCc1c[nH]c2ccccc12)C(=O)CN(CCc1c[nH]c2ccccc12)C(=O)CNCCCCN)[C@@H](C)c1ccccc1 [peptoid 18] (H-[Nlys][Gly(N(CH2)2(3-indolyl))][Gly(N(CH2)2(3-indolyl))][Nlys][Nspe][Nspe][Nlys][Nspe][Nspe][Nlys][Gly(N(CH2)2(3-indolyl))][Gly(N(CH2)2(3-indolyl))]-NH2)	103.5±4.3	14.3	37.8
